Test results published in paper PMC10042540, “Targeting oncogenic KRasG13C with nucleotide-based covalent inhibitors” (eLife, 2023).

Columns and labels:
Assay in all cases: Electroporation into HeLa cells, western blot quantification
Format in all cases: cell-based, human
tAkt1 = settings: for tAkt mean fold change: mean of cell lysates
Protocol: (§1) HeLa cells were obtained from the American Type Culture Collection (ATCC) and were cultured in DMEM medium (Gibco) supplemented with 10% fetal bovine serum (FBS) (PAN-Biotech) and 1% penicillin/streptomycin (Gibco). Cells were cultured in a humidified incubator at 37 °C in the presence of 5% CO2. The identity of the cells was validated by STR profiling and the cells were tested negative for mycoplasma contamination.
(§2) Electroporation of full-length KRas constructs (KRasWT, KRasG13C, KRasG13C-edaGDP, KRasG13C:acetyledaGDP and KRasG13C-edaGppCp) was performed based on the protocol described by [Alex et al., 2019] using the Neon Transfection System Kit (Thermo Fisher). For electroporation, 3 million cells per experiment were harvested by trypsinization, washed with PBS, and resuspended in 85 µL of the electroporation buffer R (Thermo Fisher). Increasing amounts of recombinant protein samples for each construct (0, 50, 100, 200 and 300 µg) were diluted 1:1 in buffer R followed by the addition of 30 µL of this protein master mix to the cell suspension. This cellular slurry was loaded into a […] Neon Pipette Tip (Thermo Fisher) and electroporated with 2x35 ms pulses at 1000 V. After electroporation, the cells were washed twice with PBS (15 mL) to remove non-internalized extracellular protein and the cell pellet was resuspended in 2 mL complete growth media. Cells were transferred into six-well tissue culture plates (Sarstedt) and incubated for 24 hr at 37 °C and 5% CO2 in a humidified incubator for recovery before being processed for western blotting analysis.
(§3) After recovery of the electroporation, cells were washed twice with ice-cold PBS and lysed in 100 µL of phosphatase and protease inhibitor containing RIPA buffer (Cell Signaling Technology). Cells were incubated on ice for 30 min and then harvested by scraping followed by centrifugation at 14,000 rpm for 10 min at 4 °C. Protein concentrations were determined using the Pierce BCA protein assay (Thermo) following the manufacturer’s recommended procedure. Equal amounts of protein (10 µg) were analyzed by SDS-PAGE and transferred to Immobilon-FL PVDF membranes (Merck Millipore) using Pierce 1-step transfer buffer (Thermo) and the Pierce Power Blotter (Thermo). Membranes were washed with ddH2O for 5 min, blocked with OdysseyBlocking Buffer TBS (Li-Cor) for 1 hr at room temperature and then incubated with primary antibodies diluted in OdysseyBlocking Buffer TBS overnight at 4 °C with gentle agitation. KRas (Sigma Aldrich, SAB1404011-100UG), pcRafS338 (CST, 9427), tAkt1 (CST, 2938), pAktS473 (CST, 4060), tErk (CST, 4696), pErkT202/Y204 (CST, 4370), pS6S235/236 (CST, 4858), and β-actin (CST, 4970/Sigma-Aldrich, A5441) antibodies were used to detect the individual proteins. After primary antibody incubation, membranes were washed three times with TBS-T (50 mM Tris, 150 mM NaCl, 0.05% Tween 20, pH 7.4) for 5 min before being incubated with secondary antibodies (anti-mouse IgG (H+L) (DyLight 680 Conjugate) (CST, 5470) / anti-rabbit IgG (H+L) (DyLight 800 4 X PEG Conjugate) (CST, 5151)) diluted in OdysseyBlocking Buffer TBS for 1 hr at room temperature with gentle agitation. After secondary antibody incubation, the membranes were washed three times for 5 min with TBS-T and then scanned using an OdysseyCLx imaging system (Li-Cor). Quantification of protein levels from western blots was performed using Empiria Studio (Li-Cor) (Figure 3B, C, Figure 3—figure supplements 6–9).

pcRafS338 = settings: for pcRaf mean fold change: mean of cell lysates
Protocol: as §1, §2, §3

pS6S235/236 = settings: for pS6 mean fold change: mean of cell lysates
Protocol: as §1, §2, §3

pAktS473 = settings: for pAkt mean fold change: mean of cell lysates
Protocol: as §1, §2, §3

pErkT202/Y204 = settings: for pErk mean fold change: mean of cell lysates
Protocol: as §1, §2, §3

Substance: KRasG13C-edaGDP: KRasG13C covalently locked with edaGDP at Cys13
- tAkt fold change (tAkt1; 50 µg, Cell lysate 1): 0.65
- tAkt fold change (tAkt1; 50 µg, Cell lysate 2): 1.23
- tAkt fold change (tAkt1; 50 µg, Cell lysate 3): 1.06
- tAkt mean fold change (tAkt1; 50 µg): 0.98
- tAkt fold change (tAkt1; 100 µg, Cell lysate 1): 0.92
- tAkt fold change (tAkt1; 100 µg, Cell lysate 2): 1.65
- tAkt fold change (tAkt1; 100 µg, Cell lysate 3): 0.97
- tAkt mean fold change (tAkt1; 100 µg): 1.18
- tAkt fold change (tAkt1; 200 µg, Cell lysate 1): 1.06
- tAkt fold change (tAkt1; 200 µg, Cell lysate 2): 1.22
- tAkt fold change (tAkt1; 200 µg, Cell lysate 3): 0.78
- tAkt mean fold change (tAkt1; 200 µg): 1.02
- tAkt fold change (tAkt1; 300 µg, Cell lysate 1): 0.92
- tAkt fold change (tAkt1; 300 µg, Cell lysate 2): 0.97
- tAkt fold change (tAkt1; 300 µg, Cell lysate 3): 0.68
- tAkt mean fold change (tAkt1; 300 µg): 0.86
- pcRaf fold change (pcRafS338; 50 µg, Cell lysate 1): 0.75
- pcRaf fold change (pcRafS338; 50 µg, Cell lysate 2): 1.33
- pcRaf fold change (pcRafS338; 50 µg, Cell lysate 3): 0.84
- pcRaf mean fold change (pcRafS338; 50 µg): 0.97
- pcRaf fold change (pcRafS338; 100 µg, Cell lysate 1): 0.89
- pcRaf fold change (pcRafS338; 100 µg, Cell lysate 2): 0.78
- pcRaf fold change (pcRafS338; 100 µg, Cell lysate 3): 1.40
- pcRaf mean fold change (pcRafS338; 100 µg): 1.02
- pcRaf fold change (pcRafS338; 200 µg, Cell lysate 1): 0.74
- pcRaf fold change (pcRafS338; 200 µg, Cell lysate 2): 0.88
- pcRaf fold change (pcRafS338; 200 µg, Cell lysate 3): 1.21
- pcRaf mean fold change (pcRafS338; 200 µg): 0.94
- pcRaf fold change (pcRafS338; 300 µg, Cell lysate 1): 0.57
- pcRaf fold change (pcRafS338; 300 µg, Cell lysate 2): 0.97
- pcRaf fold change (pcRafS338; 300 µg, Cell lysate 3): 1.13
- pcRaf mean fold change (pcRafS338; 300 µg): 0.89
- pS6 fold change (pS6S235/236; 50 µg, Cell lysate 1): 0.80
- pS6 fold change (pS6S235/236; 50 µg, Cell lysate 2): 1.31
- pS6 fold change (pS6S235/236; 50 µg, Cell lysate 3): 0.76
- pS6 mean fold change (pS6S235/236; 50 µg): 0.96
- pS6 fold change (pS6S235/236; 100 µg, Cell lysate 1): 0.91
- pS6 fold change (pS6S235/236; 100 µg, Cell lysate 2): 1.13
- pS6 fold change (pS6S235/236; 100 µg, Cell lysate 3): 0.75
- pS6 mean fold change (pS6S235/236; 100 µg): 0.93
- pS6 fold change (pS6S235/236; 200 µg, Cell lysate 1): 1.23
- pS6 fold change (pS6S235/236; 200 µg, Cell lysate 2): 1.03
- pS6 fold change (pS6S235/236; 200 µg, Cell lysate 3): 0.88
- pS6 mean fold change (pS6S235/236; 200 µg): 1.05
- pS6 fold change (pS6S235/236; 300 µg, Cell lysate 1): 0.98
- pS6 fold change (pS6S235/236; 300 µg, Cell lysate 2): 0.98
- pS6 fold change (pS6S235/236; 300 µg, Cell lysate 3): 0.76
- pS6 mean fold change (pS6S235/236; 300 µg): 0.91
- pAkt fold change (pAktS473; 50 µg, Cell lysate 1): 0.89
- pAkt fold change (pAktS473; 50 µg, Cell lysate 2): 1.23
- pAkt mean fold change (pAktS473; 50 µg): 0.54
- pAkt fold change (pAktS473; 100 µg, Cell lysate 1): 0.28
- pAkt fold change (pAktS473; 100 µg, Cell lysate 2): 0.69
- pAkt fold change (pAktS473; 100 µg, Cell lysate 3): 1.01
- pAkt mean fold change (pAktS473; 100 µg): 0.66
- pAkt fold change (pAktS473; 200 µg, Cell lysate 1): 0.45
- pAkt fold change (pAktS473; 200 µg, Cell lysate 2): 0.95
- pAkt fold change (pAktS473; 200 µg, Cell lysate 3): 0.56
- pAkt mean fold change (pAktS473; 200 µg): 0.65
- pAkt fold change (pAktS473; 300 µg, Cell lysate 1): 0.63
- pAkt fold change (pAktS473; 300 µg, Cell lysate 2): 0.97
- pAkt fold change (pAktS473; 300 µg, Cell lysate 3): 1.17
- pAkt mean fold change (pAktS473; 300 µg): 0.92
- pErk fold change (pErkT202/Y204; 50 µg, Cell lysate 1): 0.82
- pErk fold change (pErkT202/Y204; 50 µg, Cell lysate 2): 0.70
- pErk fold change (pErkT202/Y204; 50 µg, Cell lysate 3): 0.80
- pErk mean fold change (pErkT202/Y204; 50 µg): 0.77
- pErk fold change (pErkT202/Y204; 100 µg, Cell lysate 1): 1.10
- pErk fold change (pErkT202/Y204; 100 µg, Cell lysate 2): 0.77
- pErk fold change (pErkT202/Y204; 100 µg, Cell lysate 3): 0.86
- pErk mean fold change (pErkT202/Y204; 100 µg): 0.91
- pErk fold change (pErkT202/Y204; 200 µg, Cell lysate 1): 2.08
- pErk fold change (pErkT202/Y204; 200 µg, Cell lysate 2): 0.84
- pErk fold change (pErkT202/Y204; 200 µg, Cell lysate 3): 1.10
- pErk mean fold change (pErkT202/Y204; 200 µg): 1.34
- pErk fold change (pErkT202/Y204; 300 µg, Cell lysate 1): 2.38
- pErk fold change (pErkT202/Y204; 300 µg, Cell lysate 2): 0.86
- pErk fold change (pErkT202/Y204; 300 µg, Cell lysate 3): 1.58
- pErk mean fold change (pErkT202/Y204; 300 µg): 1.61
